In patent US12070505B2, “Targeted peptide-drug conjugates” (priority 2021, dated 2024):
Like-named read-outs stand apart in the source and are kept apart here.

How the values were obtained:
SK-OV-3 cells = test: Cytotoxicity, MTS cell viability assay, SK-OV-3 (Example 1)
Protocol: (§1) In Vitro Cytotoxicity Assay of Peptide-Drug Conjugates. […] In brief, CCRF-CEM cells were seeded at 50,000 cells in 0.1 mL per well in 98-well plates. In the case of other cell lines, the cells were seeded at 5,000 cells (0.1 mL per well in 96-well plates). […] Dox (5 μM) was used as a positive control, while water and cell culture medium were used as negative controls. The compounds were dissolved in water; water was used as a negative control to normalize the data. After the incubation period, MTS reagent (20 μL) was added to each well. The incubation was continued for 2 h. Cell viability was then determined by determination of the fluorescence intensity at 490 nm using a SpectraMax M2 microplate spectrophotometer. The percentage of cell viability was then calculated using the following equation: [(OD value of cells treated with the compound)−(OD value of culture medium)]/[(OD value of control cells)−(OD value of culture medium)]×100% (FIGS. 6-9).

CCRF-CEM cells [1] = test: Cytotoxicity, MTS cell viability assay, CCRF-CEM
Protocol: as §1

[2] = tested on: gastric adenocarcinoma cells (AGS); test: Cytotoxicity, MTS cell viability assay, AGS; conditions: for reduction of cell survival: 72 h
Protocol: as §1

[3] = Cytotoxicity, MTS assay, normal kidney cells; conditions: pig, LLC-PK1 kidney cells
Protocol: (§2) In Vitro Cytotoxicity Assay of Peptide-Drug Conjugates. The cytotoxicity of the compounds was determined by using human leukemia cell line (CCRF-CEM), human ovarian adenocarcinoma cells (SKOV-3) cells, kidney cell line (LLC-PK1), gastric adenocarcinoma cells (AGS), and heart/myocardium cells (H9C2) to evaluate the toxicity of the generated peptides according to a previously reported procedure (Rahman, A.; et al. Proc. Am. Assoc. Cancer Res. 26:2295-2299, 1985, which is incorporated herein by reference). In brief, CCRF-CEM cells were seeded at 50,000 cells in 0.1 mL per well in 98-well plates. In the case of other cell lines, the cells were seeded at 5,000 cells (0.1 mL per well in 96-well plates). The cells were seeded in medium (RPMI-1640 containing FBS (10%)), 24 h prior to the experiment. The compounds at different concentrations (10-50 μM) were added to each well in triplicate and incubated for 24 and 72 h at 37° C. in a humidified atmosphere of 5% CO2. Dox (5 μM) was used as a positive control, while water and cell culture medium were used as negative controls. The compounds were dissolved in water; water was used as a negative control to normalize the data. After the incubation period, MTS reagent (20 μL) was added to each well. The incubation was continued for 2 h. Cell viability was then determined by determination of the fluorescence intensity at 490 nm using a SpectraMax M2 microplate spectrophotometer.

LLC-PK1 kidney cells = test: Cytotoxicity, MTS assay, normal kidney cells; conditions: for Cell Viability (%) after 24 h / Cell Viability (%) after 72 h: normal kidney LLC-PK1
Protocol: as §2

[4] = tested on: uterine sarcoma cells (MES-SA/MX2)
Protocol: as §1

CCRF-CEM cells [5] = conditions: 3 h incubation; cited from earlier work
[6] = Cytotoxicity, MTS assay, normal heart muscle cells (Example 1); conditions: rat, H9C2 heart/myocardium cells
Protocol: as §2

H9C2 cells = test: as above
Protocol: as §2

For `N=C(N)NCCC[C@@H]1NC(=O)[C@H](CCCCNC(=O)[C@H](Cc2c[nH]c3ccccc23)NC(=O)[C@H](Cc2c[nH]c3ccccc23)NC(=O)[C@H](Cc2c[nH]c3ccccc23)NC(=O)[C@H](Cc2c[nH]c3ccccc23)NC(=O)[C@H](Cc2c[nH]c3ccccc23)NC(=O)[C@H](Cc2c[nH]c3ccccc23)NC(=O)[C@H](Cc2c[nH]c3ccccc23)NC(=O)CCN)NC(=O)[C@H](CCCNC(=N)N)NC(=O)[C@H](CCCNC(=N)N)NC(=O)[C@H](CCCNC(=N)N)NC(=O)[C@H](CCCNC(=N)N)NC1=O` [[R5K]W7A], the “Cell Viability (%) after 24 h” value (SK-OV-3 cells; 5 μM) was 79 ± 1%, the “Cell Viability (%) after 72 h” value (SK-OV-3 cells; 5 μM) was 102 ± 8% and the “Cell Viability (%) after 24 h” value (SK-OV-3 cells; 10 μM) was 76 ± 0%. The “Cell Viability (%) after 72 h” value (SK-OV-3 cells; 10 μM) was 101 ± 1%, the “Cell Viability (%) after 24 h” value (SK-OV-3 cells; 25 μM) was 70 ± 6% and the “Cell Viability (%) after 72 h” value (SK-OV-3 cells; 25 μM) was 81 ± 3%. The “reduction of cell viability / cytotoxicity” value (SK-OV-3 cells; 25 μM, 72 h) was 19%, the “cytotoxicity of peptide alone” value (SK-OV-3 cells; 5, 10, and 25 μM, 24 h) was 21-30% and the “Cell Viability (%) after 24 h” value (CCRF-CEM cells [1]; 5 μM) was 90 ± 1%. For the same compound, the “Cell Viability (%) after 72 h” value (CCRF-CEM cells [1]; 5 μM) was 68 ± 4%, the “Cell Viability (%) after 24 h” value (CCRF-CEM cells [1]; 10 μM) was 68 ± 4% and the “Cell Viability (%) after 72 h” value (CCRF-CEM cells [1]; 10 μM) was 73 ± 6%. For the same compound, the “Cell Viability (%) after 24 h” value (CCRF-CEM cells [1]; 25 μM) was 32 ± 0%, the “Cell Viability (%) after 72 h” value (CCRF-CEM cells [1]; 25 μM) was 24 ± 9% and the “reduction of cell viability” value (CCRF-CEM cells [1]; 25 μM, 24 h) was 68%. The “cytotoxicity of peptide alone” value (CCRF-CEM cells [1]; concentrations other than 25 μM, even after 72 h) was 10-22%, the “Cell Viability (%) after 24 h” value ([2]; 5 μM) was 103 ± 3% and the “Cell Viability (%) after 72 h” value ([2]; 5 μM) was 108 ± 1%. The “Cell Viability (%) after 24 h” value ([2]; 10 μM) was 104 ± 1%, the “Cell Viability (%) after 72 h” value ([2]; 10 μM) was 94 ± 2% and the “Cell Viability (%) after 24 h” value ([2]; 25 μM) was 105 ± 2%. For the same compound, the “Cell Viability (%) after 72 h” value ([2]; 25 μM) was 76 ± 1%, the “reduction of cell survival” value ([2]; 25 μM) was 24% and the “Cell Viability (%) after 24 h” value ([2]; 50 μM) was 79 ± 1%. For the same compound, the “Cell Viability (%) after 72 h” value ([2]; 50 μM) was 21 ± 1%, the “reduction of cell survival” value ([2]; 50 μM) was 87% and the “cytotoxicity” value ([2]; 5 and 10 μM, 24 and 72 h) was “did not generate any significant cytotoxicity”. The viability at 24 h, 5 µM [3] was 94 ± 1%, the viability at 24 h, 10 µM [3] was 86 ± 1% and the viability at 24 h, 25 µM [3] was 82 ± 1%. For the same compound, the viability at 24 h, 50 µM [3] was 71 ± 1%, the viability at 72 h, 5 µM [3] was 98 ± 3% and the viability at 72 h, 10 µM [3] was 100 ± 1%. For the same compound, the viability at 72 h, 25 µM [3] was 97 ± 1%, the viability at 72 h, 50 µM [3] was 97 ± 3% and the “cytotoxicity” value (LLC-PK1 kidney cells; LLC-PK1, 5-50 μM, 72 h) was “did not generate any significant cytotoxicity”. The “Cell Viability (%) after 24 h” value (LLC-PK1 kidney cells; 5 μM) was 94 ± 1%, the “Cell Viability (%) after 72 h” value (LLC-PK1 kidney cells; 5 μM) was 98 ± 3% and the “Cell Viability (%) after 24 h” value (LLC-PK1 kidney cells; 10 μM) was 86 ± 1%. The “Cell Viability (%) after 72 h” value (LLC-PK1 kidney cells; 10 μM) was 100 ± 1%, the “Cell Viability (%) after 72 h” value ([4]; 10 μM) was 110 ± 4% and the “Cell Viability (%) after 72 h” value ([4]; 25 μM) was 19 ± 2%. The “reduction of cell viability” value ([4]; 25 μM, 72 h) was ~80%, the “fold improved uptake of F′-GpYEEI” value (CCRF-CEM cells [5]) was “approximately 48 fold” and the “fold improved uptake of emtricitabine (F′-FTC)” value (CCRF-CEM cells [5]) was ~27 fold. The “fold improved uptake of stavudine (F′-d4T)” value (CCRF-CEM cells [5]) was ~36 fold, the viability at 72 h, 10 µM [6] was 105 ± 3% and the “Cell Viability (%) after 24 h” value (H9C2 cells; normal heart H9C2, 10 μM) was 101 ± 0%.

Compound `COc1cccc2c1C(=O)c1c(O)c3c(c(O)c1C2=O)C[C@@](O)(C(=O)CO)C[C@@H]3O[C@H]1C[C@H](NC(=N)CCCSSC[C@H](NC(C)=O)C(=O)N[C@@H](Cc2c[nH]c3ccccc23)C(=O)N[C@@H](Cc2c[nH]c3ccccc23)C(=O)N[C@@H](Cc2c[nH]c3ccccc23)C(=O)N[C@@H](Cc2c[nH]c3ccccc23)C(=O)N[C@@H](Cc2c[nH]c3ccccc23)C(=O)N[C@@H](Cc2c[nH]c3ccccc23)C(=O)N[C@@H](Cc2c[nH]c3ccccc23)C(=O)NCCCC[C@@H]2NC(=O)[C@H](CCCNC(=N)N)NC(=O)[C@H](CCCNC(=N)N)NC(=O)[C@H](CCCNC(=N)N)NC(=O)[C@H](CCCNC(=N)N)NC(=O)[C@H](CCCNC(=N)N)NC2=O)[C@H](O)[C@H](C)O1` [[R5K]W7C-S-S-Dox] has a viability at 24 h, 5 µM [6] of 98 ± 1%, a viability at 24 h, 10 µM [6] of 91 ± 1% and a viability at 24 h, 25 µM [6] of 92 ± 1%. For the same compound, the viability at 72 h, 5 µM [6] was 106 ± 1%, the viability at 72 h, 10 µM [6] was 117 ± 1% and the viability at 72 h, 25 µM [6] was 105 ± 2%. For the same compound, the viability at 96 h, 5 µM [6] was 104 ± 1%, the viability at 96 h, 10 µM [6] was 113 ± 3% and the viability at 96 h, 25 µM [6] was 108 ± 1%. For the same compound, the “cytotoxicity” value (H9C2 cells; H9C2, 5-10 and 25 μM, any incubation time) was “did not show any cytotoxicity”.
